# Assay results published in patent US20250205270A1, “ANTIBODY-DRUG CONJUGATE PRECURSORS COMPRISING A CYCLIC DINUCLEOTIDE” (TAKEDA PHARMACEUTICAL COMPANY LIMITED, priority 2016, published 2025).
# Structures can show the parent of a compound that is named as a salt. Where two headings read alike, the source gives them in different places.
# Experiments:
# [1] = system: phosphorylated IRF3 protein in FaDu cell; experiment: Phosphorylated IRF3 protein detection in FaDu cell; type: cell-based, human; settings: at 30 μM; 6 hr; 2′,3′-cGAMP 30 μM = 100%
# Protocol: Human larynx cancer cell line FaDu cell (ATCC) was seeded, the medium was replaced with serum free medium one day after the seeding. After the replacement, the cell was cultured for one day, and to the cell were added the natural ligand 2′,3′-cGAMIP (the final concentration; 30 μM) and test compound (the final concentration; 15 μM or 30 μM). 6 hr after the addition, the cell was washed with PBS, the cell extract was prepared, and the phosphorylated IRF3 protein was detected by ELISA method or Western blotting method. The IRF3 protein phosphorylation activity of the test compound was calculated when the value in the sample with adding the natural ligand 2′,3′-cGAMP at the final concentration of 30 μM was considered as 100%.
# WT STING = WT STING (Homo sapiens (Human), UniProt Q86WV6, H232R); type: cell-based
# Sequence of WT STING (Q86WV6 whole entry H232R): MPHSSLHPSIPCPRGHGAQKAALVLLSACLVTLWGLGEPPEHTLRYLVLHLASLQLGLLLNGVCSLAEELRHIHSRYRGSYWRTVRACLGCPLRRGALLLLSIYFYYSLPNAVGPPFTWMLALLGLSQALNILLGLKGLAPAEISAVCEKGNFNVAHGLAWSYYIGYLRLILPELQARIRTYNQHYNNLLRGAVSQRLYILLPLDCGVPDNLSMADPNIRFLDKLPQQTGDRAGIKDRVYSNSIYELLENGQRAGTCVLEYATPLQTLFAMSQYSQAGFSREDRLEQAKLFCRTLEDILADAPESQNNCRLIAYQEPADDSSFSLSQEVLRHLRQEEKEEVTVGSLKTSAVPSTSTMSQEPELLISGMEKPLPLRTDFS
# [2] = system: THP1-Dual cells (ISG54 promoter Lucia luciferase reporter); experiment: THP-1 Dual Lucia reporter gene assay; type: cell-based, human; settings: 20 hours incubation, read-out: THP-1 Dual cell EC50 (μM) Reporter
# Protocol: THP1-Dual™ cells (InvivoGen #thpd-nfis) were derived from the human THP-1 monocyte cell line by stable integration of the Lucia luciferase gene, a secreted luciferase reporter gene, under the control of an ISG54 (interferon-stimulated gene) minimal promoter in conjunction with five interferon (IFN)-stimulated response elements. On the day of experiment, the cells were plated to a black, 384-well plate (Corning 356697) at 7500 cells/25 μL per well density in growth media (RPMI 1640, 2 mM L-glutamine, 25 mM HEPES, 10% heat-inactivated fetal bovine serum, 100 μg/mL Normocin™, 100 U/mL-100 μg/mL Pen-Strep, 10 μg/mL of blasticidin, and 100 μg/mL of Zeocin). The cell plates were dosed with 62.5 nL of the testing compounds, and then incubated at 37° C. for 20 hours. At the end of the incubation, 15 μL/well of the QUANTI-Luc™ (InvivoGen #rep-qlc1) were added, and luminescence was measured immediately using the LeadSeeker.
# [3] = Human plasma stability assay; type: in vitro ADME; settings: 37° C., 0-24 hours, LC/MS/MS
# Protocol: The compound was incubated in heparinized human plasma at 37° C. for 0, 1, 2, 4, 8 and 24 hours, and the change in compound concentration was measured by LC/MS/MS method. The elimination rate constant (=k(/h)) was calculated based on the fitted curve assuming the exponential decrease of concentration as follows; concentration at time x=initial concentration*exp(−k*x).
# [4] = system: colon carcinoma CT-26 syngeneic mice model; experiment: Syngeneic tumor model, anti-tumor effect, CT-26; type: in vivo, mouse; settings: Balb/C mice; intravenous, every 3 days, 3 times; Ex3a 30 mg/kg, Ex14 1.0 mg/kg
# Protocol: (§1) Ex14 and Ex3a were tested in syngeneic tumor models in mice. […] See FIG. 8 and FIG. 9 for the anti-tumor effect colon carcinoma CT-26 syngeneic mice model, and FIG. 10 and FIG. 11 for the anti-tumor effect in the […] B16F10 syngeneic mice model.
# (§2) 8×10^4 B16F10 and 2×10^5 CT-26 mouse tumor cells were subcutaneously implanted in the flank of female C57BL/6 (B16F10) and Balb/C (CT-26) mice (n=7 per group). Vehicle (1×PBS), compound Ex3a (30 mg/kg) or Ex14 (1.0 mg/kg) were intravenously administered (final volume of 100 μL) to tumor-bearing mice once the tumor volume has reached 100 mm^3 (Day 0). Vehicle, Ex3a or Ex14 were given every 3 days for a total of 3 doses (q3dx3). Tumor and body weight measurements were taken three times per week using vernier calipers and mettler scale, respectively. Tumor volumes were determined by multiplying the square of the width (‘W’), measured along the short axis of the tumor, by one-half the length (‘L’) measured along the […]
# [5] = system: B16F10 syngeneic mice model; experiment: Syngeneic tumor model, anti-tumor effect, B16F10; type: in vivo, mouse; settings: C57BL/6 mice; intravenous, every 3 days, 3 times; Ex3a 30 mg/kg, Ex14 1.0 mg/kg
# Protocol: as §1, §2
Structure (SMILES),"activity level of test compound, IRF3 protein phosphorylation test [1] [% at 30 μM]",activity level against WT STING of test compound (30 μM) (WT STING) [%],"Human plasma stability (/h), elimination rate constant k [3] [h⁻¹]",further results
"Nc1ncnc2c1ncn2[C@@H]1O[C@@H]2COP(=O)(O)O[C@@H]3[C@H](O)[C@@H](COP(=O)(O)O[C@H]2[C@H]1F)O[C@H]3n1cc(F)c2c(=O)[nH]cnc21 [Example 1, 7-((5R,7R,8R,12aR,14R,15R,15aR,16R)-14-(6-amino-9H-purin-9-yl)-15-fluoro-2,10,16-trihydroxy-2,10-dioxidooctahydro-12H-5,8-methanofuro[3,2-1][1,3,6,9,11,2,10]pentaoxadiphosphacyclotetradecin-7-yl)-5-fluoro-3,7-dihydro-4H-pyrrolo[2,3-d]pyrimidin-4-one di-triethylamine Salt]",468.8,,,
"Nc1ncnc2c1ncn2[C@@H]1O[C@@H]2COP(=O)(O)O[C@@H]3[C@H](O)[C@@H](COP(=O)(S)O[C@H]2[C@H]1F)O[C@H]3n1cc(F)c2c(=O)[nH]cnc21 (stereo partly drawn) [Example 2, 7-((5R,7R,8R,12aR,14R,15R,15aR,16R)-14-(6-amino-9H-purin-9-yl)-15-fluoro-10,16-dihydroxy-2,10-dioxido-2-sulfanyloctahydro-12H-5,8-methanofuro[3,2-1][1,3,6,9,11,2,10]pentaoxadiphosphacyclotetradecin-7-yl)-5-fluoro-3,7-dihydro-4H-pyrrolo[2,3-d]pyrimidin-4-one di-triethylamine Salt (Optical Isomer)]",88.7,112,,
"Nc1ncnc2c1ncn2[C@@H]1O[C@@H]2COP(=O)(O)O[C@@H]3[C@H](O)[C@@H](COP(=O)(S)O[C@H]2[C@H]1F)O[C@H]3n1cc(F)c2c(=O)[nH]cnc21 (stereo partly drawn) [Example 3, 7-((2R,5R,7R,8R,12aR,14R,15R,15aR,16R)-14-(6-amino-9H-purin-9-yl)-15-fluoro-10,16-dihydroxy-2,10-dioxido-2-sulfanyloctahydro-12H-5,8-methanofuro[3,2-1][1,3,6,9,11,2,10]pentaoxadiphosphacyclotetradecin-7-yl)-5-fluoro-3,7-dihydro-4H-pyrrolo[2,3-d]pyrimidin-4-one 1.7 Triethylamine Salt]",464.6,,,
"Nc1ncnc2c1ncn2[C@@H]1O[C@@H]2COP(=O)(O)O[C@@H]3[C@H](O)[C@@H](COP(=O)(S)O[C@H]2[C@H]1F)O[C@H]3n1cc(F)c2c(=O)[nH]cnc21 (stereo partly drawn) [Example 3a, 7-((2R,5R,7R,8R,12aR,14R,15R,15aR,16R)-14-(6-amino-9H-purin-9-yl)-15-fluoro-10,16-dihydroxy-2,10-dioxido-2-sulfanyloctahydro-12H-5,8-methanofuro[3,2-1][1,3,6,9,11,2,10]pentaoxadiphosphacyclotetradecin-7-yl)-5-fluoro-3,7-dihydro-4H-pyrrolo[2,3-d]pyrimidin-4-one Disodium Salt]",,,0.58,"EC50 (WT STING; with digitonin, read-out: STING-293T cell EC50 (μM) Reporter with digitonin (B)): 0.13 µM; EC50 ([2]; Homo sapiens, THP1-Dual): 5.6 µM; anti-tumor effect (tumor volume) [4]: anti-tumor effects were observed; anti-tumor effect (tumor volume) [5]: anti-tumor effects were observed"
"Nc1ncnc2c1ncn2[C@@H]1O[C@@H]2COP(=O)(S)O[C@@H]3[C@H](O)[C@@H](COP(=O)(S)O[C@H]2[C@H]1O)O[C@H]3n1cc(F)c2c(=O)[nH]cnc21 (stereo partly drawn) [Example 5, 7-((5R,7R,8R,12aR,14R,15R,15aS,16R)-14-(6-amino-9H-purin-9-yl)-15,16-dihydroxy-2,10-dioxido-2,10-disulfanyloctahydro-12H-5,8-methanofuro[3,2-1][1,3,6,9,11,2,10]pentaoxadiphosphacyclotetradecin-7-yl)-5-fluoro-3,7-dihydro-4H-pyrrolo[2,3-d]pyrimidin-4-one di-triethylamine Salt (Optical Isomer)]",117.4,,<0.01,
"Nc1nc2c(ncn2[C@@H]2O[C@@H]3COP(=O)(O)O[C@H]4[C@@H](O)[C@H](c5cnn6c(N)ncnc56)O[C@@H]4COP(=O)(O)O[C@@H]2[C@@H]3O)c(=O)[nH]1 [Example 13, 2-amino-9-((5R,7R,8R,12aR,14S,15S,15aS,16R)-14-(4-aminopyrazolo[1,5-a][1,3,5]triazin-8-yl)-2,10,15,16-tetrahydroxy-2,10-dioxidooctahydro-12H-5,8-methanofuro[3,2-1][1,3,6,9,11,2,10]pentaoxadiphosphacyclotetradecin-7-yl)-1,9-dihydro-6H-purin-6-one di-triethylamine Salt]",,99,,
"Nc1ncnc2c1ncn2[C@@H]1O[C@@H]2COP(=O)(S)O[C@@H]3[C@H](O)[C@@H](COP(=O)(S)O[C@H]2[C@H]1F)O[C@H]3n1cc(F)c2c(=O)[nH]cnc21 (stereo partly drawn) [Example 14, 7-((2R,5R,7R,8R,10R,12aR,14R,15R,15aR,16R)-14-(6-amino-9H-purin-9-yl)-15-fluoro-16-hydroxy-2,10-dioxido-2,10-disulfanyloctahydro-12H-5,8-methanofuro[3,2-1][1,3,6,9,11,2,10]pentaoxadiphosphacyclotetradecin-7-yl)-5-fluoro-3,7-dihydro-4H-pyrrolo[2,3-d]pyrimidin-4-one Disodium Salt]",,,<0.01,anti-tumor effect (tumor volume) [4]: anti-tumor effects were observed; anti-tumor effect (tumor volume) [5]: anti-tumor effects were observed
"Nc1ncnc2c1ncn2[C@@H]1O[C@@]23CO[C@@H]1[C@@H]2OP(=O)(S)OC[C@H]1O[C@@H](n2cc(F)c4c(=O)[nH]cnc42)[C@H](OP(=O)(O)OC3)[C@@H]1O (stereo partly drawn) [Example 17, 7-((5R,7R,8R,12aR,14R,15R,15aS,18R)-14-(6-amino-9H-purin-9-yl)-10,18-dihydroxy-2,10-dioxido-2-sulfanylhexahydro-14H-15,12a-(epoxymethano)-5,8-methanofuro[3,2-1][1,3,6,9,11,2,10]pentaoxadiphosphacyclotetradecin-7(12H)-yl)-5-fluoro-3,7-dihydro-4H-pyrrolo[2,3-d]pyrimidin-4-one di-triethylamine Salt]",,110,,
"Nc1nc2c(ncn2[C@@H]2O[C@@H]3COP(=O)(O)O[C@@H]4[C@H](O)[C@@H](COP(=O)(O)O[C@H]3[C@H]2F)O[C@H]4n2cc(F)c3c(=O)[nH]cnc32)c(=O)[nH]1 [Example 19, 2-amino-9-((5R,7R,8R,12aR,14R,15R,15aR,16R)-15-fluoro-7-(5-fluoro-4-oxo-3,4-dihydro-7H-pyrrolo[2,3-d]pyrimidin-7-yl)-2,10,16-trihydroxy-2,10-dioxidooctahydro-12H-5,8-methanofuro[3,2-1][1,3,6,9,11,2,10]pentaoxadiphosphacyclotetradecin-14-yl)-1,9-dihydro-6H-purin-6-one di-triethylamine Salt]",,101,,
"Nc1nc2c(ncn2[C@@H]2O[C@@H]3COP(=O)(O)O[C@H]4[C@@H](O)[C@H](n5cnc6c(N)ncnc65)O[C@@H]4COP(=O)(O)O[C@@H]2[C@@H]3O)c(=O)[nH]1 [cGAMP, 2′,3′-cGAMP, reference compound]",,,1.39,EC50 [2]: 18 µM
